The results in this text go back to patent publication US20030073850A1, “4-Imidazole derivatives of benzyl and restricted benzyl sulfonamides, sulfamides, ureas, carbamates, and amides and their use” (priority 1998, published 2003).

Read-outs that look alike come from different tables or passages of the source.

For one data set, the target named is T1, α1A (rabbit urethra) (Oryctolagus cuniculus, UniProt O02824).
T1 construct: tested for α1A functional activity using rabbit urethra; from tissue; host or cells: rabbit urethra (female New Zealand white rabbits)
T1 sequence (O02824 1-466): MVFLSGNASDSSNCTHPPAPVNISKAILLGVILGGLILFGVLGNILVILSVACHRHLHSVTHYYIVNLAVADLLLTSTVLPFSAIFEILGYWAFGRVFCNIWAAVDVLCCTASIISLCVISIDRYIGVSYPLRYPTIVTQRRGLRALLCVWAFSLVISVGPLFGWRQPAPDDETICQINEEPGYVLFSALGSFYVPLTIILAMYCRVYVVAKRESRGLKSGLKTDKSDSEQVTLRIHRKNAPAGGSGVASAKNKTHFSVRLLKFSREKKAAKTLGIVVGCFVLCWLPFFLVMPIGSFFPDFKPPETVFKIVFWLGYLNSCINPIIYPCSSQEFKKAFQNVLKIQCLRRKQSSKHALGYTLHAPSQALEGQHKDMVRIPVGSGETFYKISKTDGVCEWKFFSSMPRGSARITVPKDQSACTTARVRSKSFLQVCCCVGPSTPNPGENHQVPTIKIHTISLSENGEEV
In words: Agonist tissue response, contraction of rabbit urethra. Particulars: values without asterisk, read-out: Agonist Tissue Response (pD2) α1A (rab ureth) (converted). The class given is biochemical. How it is done:
Most of the compounds were tested for α1A functional activity using rabbit urethra as follows. Female New Zealand white rabbits (2.0-3.5 Kg) were sedated with CO2 and decapitated. […] Subsequent experimental conditions were as described above for the other tissues. Agonist concentration response curves were cumulative except for the vas deferens assay in which the transient response made such measurements impractical.

The target in data set [1] is T2, α1b (hamster receptor expressed in mouse fibroblasts) (Mesocricetus auratus, UniProt P18841).
T2 construct: expressed in transfected cells; host or cells: mouse fibroblasts
T2 sequence (P18841 1-515): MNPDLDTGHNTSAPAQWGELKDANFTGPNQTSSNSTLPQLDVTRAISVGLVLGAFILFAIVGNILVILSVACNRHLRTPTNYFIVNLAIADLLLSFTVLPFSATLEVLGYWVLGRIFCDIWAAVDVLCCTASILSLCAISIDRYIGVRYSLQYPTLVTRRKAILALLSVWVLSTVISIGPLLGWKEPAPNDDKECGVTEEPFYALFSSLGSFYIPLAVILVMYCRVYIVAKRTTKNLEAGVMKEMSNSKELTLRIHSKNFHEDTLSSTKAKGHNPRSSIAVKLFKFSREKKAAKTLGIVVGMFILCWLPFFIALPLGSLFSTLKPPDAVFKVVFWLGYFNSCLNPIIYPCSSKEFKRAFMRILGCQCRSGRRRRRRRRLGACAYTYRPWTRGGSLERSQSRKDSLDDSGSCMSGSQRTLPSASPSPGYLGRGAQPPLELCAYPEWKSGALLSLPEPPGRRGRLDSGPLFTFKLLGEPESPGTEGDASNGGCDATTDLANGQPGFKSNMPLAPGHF
Put plainly: Radioligand binding, [3H]-prazosin, α1b. The method in brief:
(§1)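 [3H]-prazosin radioligand displacement; α1A from rat submaxillary gland tissue, α1b hamster and α1d rat receptors each expressed in mouse fibroblasts.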

Data set [2] concerns the target T3, α1d (rat receptor expressed in mouse fibroblasts) (Rattus norvegicus, UniProt P23944).
T3 construct: expressed in transfected cells; host or cells: mouse fibroblasts
T3 sequence (P23944 1-561): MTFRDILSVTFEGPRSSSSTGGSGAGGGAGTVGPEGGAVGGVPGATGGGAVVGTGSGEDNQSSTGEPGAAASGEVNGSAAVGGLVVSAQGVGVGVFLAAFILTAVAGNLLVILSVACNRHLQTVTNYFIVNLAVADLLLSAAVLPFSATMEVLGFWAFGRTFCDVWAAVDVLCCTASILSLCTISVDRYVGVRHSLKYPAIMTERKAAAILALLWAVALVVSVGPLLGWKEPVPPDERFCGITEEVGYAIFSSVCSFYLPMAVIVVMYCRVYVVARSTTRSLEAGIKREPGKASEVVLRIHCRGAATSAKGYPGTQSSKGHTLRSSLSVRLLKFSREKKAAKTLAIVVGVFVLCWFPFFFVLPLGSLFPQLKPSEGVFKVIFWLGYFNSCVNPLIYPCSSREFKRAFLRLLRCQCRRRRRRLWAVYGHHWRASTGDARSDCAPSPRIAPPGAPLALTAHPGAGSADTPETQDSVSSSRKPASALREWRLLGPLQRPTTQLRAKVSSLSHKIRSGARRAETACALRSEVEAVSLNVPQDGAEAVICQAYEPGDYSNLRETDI
In words: Radioligand binding, [3H]-prazosin, α1d. The method in brief:
as §1

Data set [3] addresses T4, α1A (rat submaxillary gland) (Rattus norvegicus, UniProt P43140).
T4 construct: α1A (rat submaxillary gland); from tissue; host or cells: rat submaxillary gland
T4 sequence (P43140 1-466): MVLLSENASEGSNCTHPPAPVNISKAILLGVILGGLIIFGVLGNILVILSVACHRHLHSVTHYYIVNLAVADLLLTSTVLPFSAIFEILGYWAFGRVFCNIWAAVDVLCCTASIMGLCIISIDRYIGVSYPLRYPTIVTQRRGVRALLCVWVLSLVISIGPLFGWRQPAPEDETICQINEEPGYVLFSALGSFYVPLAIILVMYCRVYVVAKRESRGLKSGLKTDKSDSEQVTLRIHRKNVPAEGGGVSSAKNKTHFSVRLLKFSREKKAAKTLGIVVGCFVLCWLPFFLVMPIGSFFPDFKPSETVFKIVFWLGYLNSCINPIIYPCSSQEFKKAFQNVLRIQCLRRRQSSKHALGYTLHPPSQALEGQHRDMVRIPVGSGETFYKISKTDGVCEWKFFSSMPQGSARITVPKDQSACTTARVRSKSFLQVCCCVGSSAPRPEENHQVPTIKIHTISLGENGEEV
In words: Radioligand binding, [3H]-prazosin, α1A. Here is the method: For purposes of discussing a, adrenoceptor subtypes, the IUPHAR convention of using lower case letters to define molecular clones and upper case letters to indicate pharmacologically defined adrenoceptors has been followed. Compounds of formula I were evaluated in radioligand binding assays specific for α1A (rat submaxillary gland), α1b (hamster receptor expressed in mouse fibroblasts) and α1d (rat receptor expressed in mouse fibroblasts) using [^3H]-prazosin as the radioligand as described in Knepper, et al. J. Pharm.

Data set [4] has as its system anesthetized dogs. In words: Intraurethral pressure (IUP) in anesthetized dogs. The format is in vivo, dog. Particulars: for ED (5 mm Hg): Canis lupus familiaris, iv dose causing a maximum increase in IUP of 5 mm Hg, anesthetized female Beagle dogs, read-out: Mean IUP ED5; for Mean Selectivity Ratio MAP ED20/IUP ED5: anesthetized dogs, iv. From the text:
(§2) Female Beagle dogs (Marshall Farms, North Rose, N.Y.) greater that 2 years of age and weighing between 12 and 15 kg were used in these studies. At least 2 weeks prior to any agonist dosing, dogs were instrumented for the chronic measurement of arterial blood pressure by implanting a telemetry transducer/transmitter (TA11PA-C40, Data Sciences International, St. Paul, Minn.) into a carotid artery.
(§3) On the test day, dogs fasted since the previous afternoon were pre-anesthetized with thiopental sodium 15 mg/kg i.v. (Pentothal™, Abbott) and intubated. Anesthesia was maintained by allowing the dog to spontaneously breathe a mixture of isoflurane (2.5 to 3 volume %) and oxygen delivered by a Narkomed Standard anesthesia system (North American Drager, Telford, Pa.). An Abbocath-T™ i.v. catheter (18-G, Abbott) was inserted into the cephalic vein for the administration of agonists. A telemetry receiver (RA1310, DataSciences) was placed under the head of each dog and was interfaced to a computerized data acquisition system (Modular Instruments Inc.(MI2), Malvern, Pa.) which allowed for the continuous calibrated recording of arterial blood pressure which was electronically filtered to determine its mean value (MAP).
Dogs with chronic telemetry implants anesthetized as described above were placed in dorsal recumbency and a balloon catheter was inserted into the urethral orifice and advanced approximately 15 cm until the tip was well inside the bladder. The balloon was then inflated with 1 ml of room air and the catheter slowly withdrawn until resistance (corresponding to the bladder neck) was evident. The balloon was then deflated and the catheter withdrawn additional 2 cm. The balloon was then reinflated and its catheter port connected to a Gould Statham P23Dd pressure transducer interfaced to a computerized data acquisition system (Modular Instruments, Inc., Malvern, Pa.) for the measurement of the intraurethral pressure. Increasing iv doses of test agonists were administered and the maximum effect of each dose on IUP was recorded. The effect of each dose was allowed to return to baseline before the next dose was given.
(§4) From the resulting dose response curve, an ED5 value, for the dose causing a maximum increase in IUP of 5 mm Hg, could be estimated. An ED20 value for the dose causing a maximum increase in MAP of 20 mm Hg could also be estimated. A selectivity ratio of MAP ED20 vs. IUP ED, was calculated.

Data set [5] relates to anesthetized dogs. Put plainly: Mean arterial pressure (MAP) in anesthetized dogs. The format is in vivo, dog. The conditions noted are these: iv dose causing a maximum increase in MAP of 20 mm Hg, anesthetized female Beagle dogs.
Description: as §2, §3, §4

Setting [6] is: hamster receptor expressed in mouse fibroblasts, [3H]-prazosin, read-out: Radioligand Binding Ki α1b (Hamster).
[7] abbreviates: rat receptor expressed in mouse fibroblasts, [3H]-prazosin, read-out: Radioligand Binding Ki α1d (Rat).

With `CC(C)[C@H]1CC[C@H](C)C[C@@H]1OC(=O)Nc1cccc2c1CCCC2c1c[nH]cn1` (stereo partly drawn) [Example 123, (1S,2R,5S)-2-isopropyl-5-methylcyclohexyl 5-(1H-imidazol-4-yl)-5,6,7,8-tetrahydro-1-naphthalenylcarbamate], on α1A (rabbit urethra), the EC50 is 6170 nM. In addition, the Ki stood at 1360 nM in data set [1] (setting [6]), 692 nM in data set [2] (setting [7]) and 1280 nM in data set [3].
In the case of `CCS(=O)(=O)Nc1cc(Cl)cc2c1CCCC2c1c[nH]cn1` (stereo not drawn) [Example 132, N-[3-chloro-5-(1H-imidazol-4-yl)-5,6,7,8-tetrahydro-1-naphthalenyl]ethanesulfonamide], in the data set on anesthetized dogs [4], the ED (5 mm Hg) came to 0.019 µmol/kg. Moreover, the “Mean Selectivity Ratio MAP ED20/IUP ED5” value in the data set with anesthetized dogs [4] is recorded as 2.5. Further, the “Mean MAP ED20” value in the data set on anesthetized dogs [5] was 47.7 nmol/kg. For the same compound, the Ki stood at 10000 nM in data set [1], 367 nM in data set [2] and 47 nM in data set [3].
Regarding `CCS(=O)(=O)Nc1cc(F)cc2c1OCCC2c1c[nH]cn1.O=C(O)/C=C\C(=O)O` (stereo not drawn) [Example 80, N-[6-fluoro-4-(1H-imidazol-4-yl)-3,4-dihydro-2H-chromen-8-yl]ethanesulfonamide, Maleate], the ED (5 mm Hg) in the data set with anesthetized dogs [4] was found to be 0.113 µmol/kg. Further, the “Mean Selectivity Ratio MAP ED20/IUP ED5” value with anesthetized dogs [4] was determined as 1.12. In addition, the “Mean MAP ED20” value in the data set on anesthetized dogs [5] was determined as 125.78 nmol/kg. Besides, the Ki in data set [1] (setting [6]) was 10000 nM; in data set [2] (setting [7]), 1590 nM; in data set [3], 378 nM.
In the case of `COCCN(CCOC)C(=O)Nc1cccc2c1CCCC2c1c[nH]cn1` (stereo not drawn) [Example 116, N′-[5-(1H-imidazol-4-yl)-5,6,7,8-tetrahydro-1-naphthalenyl]-N,N-bis(2-methoxyethyl)urea], the EC50 on α1A (rabbit urethra) was 9330 nM. In addition, the Ki turned out to be 10000 nM in data set [1] (setting [6]), 10000 nM in data set [2] (setting [7]) and 2980 nM in data set [3].
In the case of `CS(=O)(=O)Nc1ccc(F)c2c1CCCC2c1c[nH]cn1.O=C(O)/C=C\C(=O)O` (stereo not drawn) [Example 44, N-[4-fluoro-5-(1H-imidazol-4-yl)-5,6,7,8-tetrahydro-1-naphthalenyl]methanesulfonamide, Maleate], the melting point was 182 to 186 °C. The ED (5 mm Hg) in the data set with anesthetized dogs [4] was 0.892 µmol/kg. The “Mean MAP ED20” value in the data set on anesthetized dogs [5] is on record as 588 nmol/kg. The Ki in data set [1] (setting [6]) is 10000 nM.
As for `CCCN(CCC)C(=O)Nc1cccc2c1CCCC2c1c[nH]cn1` (stereo not drawn) [Example 112, N′-[5-(1H-imidazol-4-yl)-5,6,7,8-tetrahydro-1-naphthalenyl]-N,N-dipropylurea], the EC50 at α1A (rabbit urethra) was 7940 nM. Further, the Ki in data set [1] (setting [6]) is 10000 nM; in data set [2] (setting [7]), 10000 nM; in data set [3], 1240 nM.
On to `O=C(Nc1cccc2c1CCCC2c1c[nH]cn1)OCC(Cl)(Cl)Cl` (stereo not drawn) [Example 121, 2,2,2-trichloroethyl 5-(1H-imidazol-4-yl)-5,6,7,8-tetrahydro-1-naphthalenylcarbamate], for which the EC50 on α1A (rabbit urethra) is 3720 nM. For the same compound, the Ki in data set [1] is 1850 nM; in data set [2] it was 963 nM; in data set [3], 229 nM.
The compound `CS(=O)(=O)Nc1cc(F)cc2c1OCCC2c1c[nH]cn1.O=C(O)/C=C\C(=O)O` (stereo not drawn) [Example 90, N-[6-fluoro-4-(1H-imidazol-4-yl)-3,4-dihydro-2H-chromen-8-yl]methanesulfonamide Maleate] came in with a melting point of 187 to 190 °C. Besides, at α1A (rabbit urethra), the EC50 is 490 nM. Moreover, the Ki in data set [1] (setting [6]) came to 10000 nM. In addition, the Ki in data set [2] (setting [7]) was found to be 10000 nM. The compound further returned a Ki in data set [3] of 237 nM.
Turning to `O=S(=O)(C=Cc1ccccc1)Nc1cccc2c1CCCC2c1cnc[nH]1` (stereo not drawn) [Example 70, N-[5-(1H-imidazol-5-yl)-5,6,7,8-tetrahydro-1-naphthalenyl]-2-phenyl-1-ethenesulfonamide], on α1A (rabbit urethra), the EC50 is 81300 nM. Moreover, the Ki turned out to be 387 nM in data set [1] (setting [6]), 353 nM in data set [2] (setting [7]) and 430 nM in data set [3].
`O=S(=O)(Cc1ccccc1)Nc1cccc2c1CCCC2c1cnc[nH]1` (stereo not drawn) [Example 67, N-[5-(1H-imidazol-5-yl)-5,6,7,8-tetrahydro-1-naphthalenyl](phenyl)methanesulfonamide]: the EC50 on α1A (rabbit urethra) is 107000 nM. The Ki in data set [1] (setting [6]) was 2390 nM; in data set [2] (setting [7]) it was 3740 nM; in data set [3] it was 901 nM.

Broadly, the Ki is a measure of affinity in units of concentration, obtained from inhibition or displacement. The melting point is the temperature, or range, at which the solid turns liquid.
